One may read the inhibition as the relative decrease from the control value, in per cent.

The text below walks through data of patent US20070037887A1, “Blockade of mtor to prevent a hormonal adaptive response” (University of Virginia Patent Foundation, priority 2003, published 2007).

Test [1] relates to MCF-7 cells. The test can be described thus: Growth of MCF-7 cells (cell number). The class given is cell-based, human. Here is the method: FIG. 3 represents the effect of FTS on the growth of MCF-7, LTED, and MCF-10A cells. Sixty thousand cells were plated into each well of 6-well plates. Two days later, the cells were treated in triplicate for five days with FTS at indicated concentrations. The results (mean±S.E.) are expressed as percentage of the vehicle control.
FIG. 4 represents the effect of FTS on E2 stimulated growth of MCF-7 and LTED cells. Thirty thousand cells were plated into each well of 6-well plates. Two days later, the cells were re-fed with IMEM containing 5% DCC-FBS. After another two days, cells were treated in triplicate with estradiol (10^−10 M) plus various concentrations of FTS for five days. In LTED cells, fulvestrant (10^−9 M) was included in all wells to block the effect of residual estrogen in the culture. The results (mean±S.E.) are expressed as percentage of cell number from the wells containing E2.
The effect of FTS on growth of breast cancer cells was examined in two different cell lines: MCF-7 wild type cells which represent a model for untreated breast cancer and LTED cells as a model of cells adapting to endocrine treatment. Cells were grown in their culture media and treated with FTS for five days. […] The effect of FTS on E2-stimulated growth of MCF-7 and LTED cells was the examined. Five-day treatment of MCF-7 cells with E2 (10^−10 M) increased cell number by 8-fold compared with the vehicle control. Addition of FTS reduced cell number in a dose-dependent manner with about 50% inhibition at the concentration of 50 μM […]. […] The extent of inhibition of E2-stimulated cell growth by FTS was similar in these two cell lines.

Test [2] concerns MCF-7 cells. The test can be described thus: [3H] thymidine incorporation into DNA, MCF-7 cells. The class given is cell-based, human. Here is the method:
FIGS. 5A & 5B represent the effect of FTS on DNA synthesis in MCF-7 (FIG. 5A) and LTED (FIG. 5B) cells. One hundred thousand cells were plated into each well of 24-well plates. Two days later, the cells were re-fed with IMEM containing 5% DCC-FBS. After another two days, cells were treated in quadruplicate with the compounds indicated for 18 hours. [^3H] thymidine (1 μCi/well) was added during the last 2 h of incubation. [^3H] thymidine incorporated into DNA was normalized by protein content.
The inhibitory effect of FTS on cell growth may be the result of inhibition of cellular proliferation, induction of apoptosis, or both. To determine the mechanism by which FTS inhibits cell growth, FTS's effect on DNA synthesis and apoptosis was investigated. […] Estradiol (10^−10 M) increased [^3H] thymidine incorporation by 2.6 fold compared to the control level in MCF-7 cells.
Background: Dividing cells build labelled thymidine or BrdU into new DNA.

In test [3] the test system is ERK1/2 MAP kinase, Akt, p70 S6 kinase, PHAS-I phosphorylation in LTED cells. Put plainly: Western analysis of serum-stimulated kinase phosphorylation, LTED cells. The class given is cell-based, human. As for the experimental part:
FIGS. 7A-7D represent data showing the effect of FTS on serum-stimulated activation of MAP kinase, PI3 kinase, and mTOR. Subconfluent MCF-7 and LTED cells grown in 60 mm dishes were treated with FTS in their culture media for 24 h. Cells were then harvested and cell lysate prepared. Phosphorylation of ERK1/2 MAP kinase (FIG. 7A), Akt at Ser^473 (FIG. 7B), p70 S6 kinase at Thr^389 (FIG. 7C), and PHAS-I at Ser^65 (FIG. 7D) was detected by Western analysis using specific antibodies and quantitated by densitometry scanning.
FIGS. 10A-10D represent data showing the effect of FTS on serum- and growth factor-induced phosphorylation of p70 S6 kinase at Thr^229 in LTED cells (FIG. 10A). Comparison of FTS and LY 294002 (LY) on Thr^229 phosphorylation of p70 S6K induced by EGF (FIG. 10B; by same treatment as described in FIG. 8). Comparison of FTS and LY 294002 on […] phosphorylation of p70 S6K induced by IGF-1 (FIG. 10C; by same treatment as described in FIG. 8). FIG. 10D is graph displaying the time course of FTS (100 μM) effects on Thr^389 and Thr^229 phosphorylation of p70 S6K in LTED cells cultured in serum containing IMEM.
The levels of phosphorylated ERK1/2 MAPK, Akt (Ser^473), p70S6K (Thr^389) and PHAS-1 (Ser^65) were consistently elevated in LTED cells compared to those in wild type MCF-7 cells as indicated by Western blot analysis using specific antibodies against phosphorylated ERK 1/2 (FIG. 7A), Akt (FIG. 7B), p70S6 kinase (FIG. 7C) and PHAS-1 (FIG. 7D). […] (FIGS. 7C & 7D).
In contrast, LY294002 blocked growth factor induced Thr^229 phosphorylation in a dose- and time-dependent manner (FIGS. 10A and 10B). […] Therefore, FTS's effect on MTOR activity was investigated.

A further test relates to PHAS-I. Put plainly: PHAS-I phosphorylation in 293T cells (SDS-PAGE mobility, PThr36/45 immunoblot). The class given is cell-based. The conditions noted are these: increasing concentrations, 1 h. As for the experimental part: FIG. 11A & 11B represent data showing FTS inhibits PHAS-I phosphorylation and promotes dissociation of the mTOR-raptor complex in 293T cells. 293T cells were transfected with pcDNA3AU1-mTOR, pcDNA33HARaptor, pcDNA33HA-mLST8, and pCMV-Tag3APHAS-I (FIG. 11A). After 18 h the cells were incubated for 1 h with increasing concentrations of FTS before extracts were prepared. A sample of each extract was subjected to SDS-PAGE and immunoblotted to detect PHAS-I or PThr^36/45. AU1-mTOR was also immunoprecipitated from each extract, and immune complexes were subjected to SDSPAGE and immunoblotted with mTAb2, to detect mTOR, and with anti-HA antibodies, to detect HA-mLST8 and HA-raptor. Nontransfected 293T cells were incubated with increasing concentrations of FTS for 1 h before extracts were prepared. mTOR was immunoprecipitated with mTAb1, and samples were subjected to SDS-PAGE.
To investigate the effects of FTS on mTOR function in 293T cells, changes in the phosphorylation of PHAS-I, a well characterized target of mTOR were monitored. Phosphorylation of Ser64 and Thr69 in PHAS-I causes a dramatic decrease in the mobility of the protein in SDS-PAGE, so that changes in the mobility provide an index of changes in phosphorylation state. […]
A general note: In western blotting, separated proteins are transferred to a membrane and probed.

Where [4] appears, read: FTS 100 μM, serum containing medium.

In the case of `CC(C)=CCC/C(C)=C/CC/C(C)=C/CSc1ccccc1C(=O)O` [FTS, farnesylthiosalicylic acid], the inhibition at 50 µM in the test with MCF-7 cells [1] (Homo sapiens, MCF7, 120 h, read-out: inhibition of E2-stimulated growth (cell number)) is approximately 50%. The basal growth entry in the test on MCF-7 cells [1] (culture media, five days) is given as “dose-dependently inhibited”. Moreover, the “[3H] thymidine incorporated into DNA” value in the test on MCF-7 cells [2] (FTS 75 μM, 18 hours) is “significantly reduced”. Moreover, the “estradiol-induced increase of [3H] thymidine incorporation” value in the test on MCF-7 cells [2] (FTS with estradiol 10^−10 M) is “completely blocked”. In test [3] (setting [4]), the “time at which inhibition of Thr389 phosphorylation maximized” value is on record as 24 h and the “time at which inhibition of Thr389 phosphorylation occurred” value was 2 h. Moreover, the “Thr229 phosphorylation of p70 S6K” value in test [3] (FTS 100 μM, serum containing medium, time course) was “only slightly reduced”. Further, the “phosphorylation of ERK1/2 MAPK, Akt (Ser473), p70S6K (Thr389) and PHAS-1 (Ser65)” value in test [3] (FTS 24 h in culture media) is “dose-dependently inhibited”. Further, in the test with PHAS-I, the “phosphorylation of PHAS-I (electrophoretic mobility)” value is “decreased the phosphorylation” and the “reactivity of PHAS-I with PThr36/45 phosphospecific antibodies” value is listed as “markedly decreased”.
